For assay [1], the system named is wheat selection FS4 and Fidel. Nature of the assay: Field Trial II. The class given is in vivo. Particulars: for effect on final plant height: resistant selection FS4, postemergent, six weeks after treatment.
The test system of assay [2] is mutant wheat selections FS1-FS4 and Fidel. The class given is in vivo. The source says:
This greenhouse test examines the level and spectrum of herbicide resistance of the mutant selections at the whole plant level. […] These lines are bulked according to their parental lines: FS1, FS2, FS3 and FS4. Fidel (wild-type) is used is a control and for performance comparison purposes. Five seeds from each of these lines (including Fidel) are planted per pot in six inch Azalea pots and are later thinned to three plants per pot. Three replicates are used per treatment (chemical and rate) for each line, and six replicates per wheat line are used as untreated controls. Plants are sprayed postemergence, 10 days after planting, with the following herbicides and rates: […]

The test system of assay [3] is wheat seed of the susceptible cultivar Fidel. Nature of the assay: Pre-emergence herbicide application, rate finding. The conditions noted are these: visual toxicity after three to four weeks. The format is in vivo.
Protocol: A series of experiments is performed to determine the appropriate herbicide rate for this pre-emergent spray treatment. Wheat seed of the susceptible cultivar Fidel is planted in Metro Mix 350™ in 6×8 inch peat flats at a rate of 100 seeds per flat. The flats are watered prior to herbicide treatment. Three flats are sprayed per treatment. The herbicides are applied with a laboratory belt sprayer at a rate of 950 liters per hectare (L/ha) at a belt speed of 12.8 sec/rev using sprayer nozzle #40015E (Teejet™ Spraying Systems). After three to four weeks, the treatments are evaluated by visual observation for toxicity to the wheat seeds/seedlings.
Assay [4] relates to wheat variety Fidel and resistant selections FS2 and FS4. Nature of the assay: Preemergence Herbicide Tolerance. The class given is in vivo. The conditions noted are these: pre-emergence application; plant growth after four weeks; versus Fidel.
The subject of assay [5] is wheat seeds. Briefly: Seed soak screen (Example 1, Step 1, Experiments 1-4). The format is in vivo. The conditions noted are these: for herbicide concentration necessary for lethality: seed soak; for seedling appearance versus controls: by three to four weeks. Here is the method: The seeds are rinsed in sterile distilled water and then soaked in a herbicide concentration for a set period of time, as described below. Sets of twenty-five seeds are placed into 25 ml of the herbicide solution described below in a sterile 100×15 mm plastic petri dish and soaked for the designated time. The seeds are rinsed with water, dried with paper towels and planted (25 seeds/flat) approximately ½″ deep in 6×8 inch peat flats containing a moist, sterile, artificial soil, Metro Mix 350™ (Grace Company, Cambridge, Mass.). The treatments are evaluated at four weeks after treatment. The herbicides, rates and time periods evaluated are described below:
Each treatment is replicated four times.
Each treatment is replicated two times.
The protocol is as described above except that 35 seeds are soaked per petri dish; 25 seeds are still planted per flat. This experiment is repeated twice.

The subject of assay [6] is wheat selections FS2 and FS4 and Fidel. Briefly: Postemergence Herbicide Tolerance, upper limits. The conditions noted are these: four weeks after treatment. The class given is in vivo. The text has this: In this second greenhouse test, the upper limits of the mutant selections' resistance to postemergent applications of PURSUIT™ and Compound 2 are examined. M4 seed of two of the mutant selections, FS2 and FS4, and seed of Fidel are used in this experiment. Five seeds from each line are planted per pot in sterile Metro Mix 350™ in six inch Azalea pots. Immediately prior to herbicide treatment, these plants are thinned to three plants per pot. Three replicates are used per treatment (chemical & rate) for each line, and six replicates per wheat line are used as untreated controls. The plants are sprayed postemergence, 10 days after planting, with the following herbicides and rates (g/ha):
The herbicides are applied as previously described. Plant height is measured immediately prior to spraying. Plant heights are also measured at two and four weeks after treatment, and shoot fresh weights measured at seven weeks after treatment.

Assay [7] relates to mutant wheat selection FS2 and Fidel. Nature of the assay: M3-M4 Wheat Herbicide Resistance Spectrum. The format is in vivo. Particulars: FS2 versus Fidel; postemergence. The text has this:
In this experiment, the tolerance of imidazolinone-resistant wheat to three sulfonylurea herbicides (BEACON™, CLASSIC™ and OUST™ (BEACON™ is a registered trademark of Ciba-Geigy and is 2-[4,6-bis-(difluoro-methoxy)-pyrimidin-2-ylcarbamoylsulfamoyl]benzoic acid; CLASSIC™ is a registered trademark of E.I. du Pont de Nemours and Company and is the ethyl ester of o-[[(4-chloro-6-methoxy-2-pyrimidinyl)-carbamoyl]-sulfamoyl]-benzoic acid), a sulfamoylurea herbicide (Compound 3), a sulfonylcarboxamide (Compound 1), and an imidazolinone herbicide (Compound 7, which is 3-(4-isopropyl-4-methyl-5-oxo-2-imidazolin-2-yl)-2-methyl-crotonic acid), is examined to look for cross-tolerance to AHAS-inhibiting herbicides other than the imidazolinones. […] Each treatment consists of three replicates. In addition, there are six replicates each of FS2 and Fidel which are used as untreated controls. Plants are sprayed postemergence, 7 days after planting, with the following herbicides and rates:
The herbicides are applied as previously described. Plants are rated at two, three and four weeks after treatment with herbicide.

Assay [8] concerns AHAS (acetohydroxyacid synthase). Briefly: AHAS Enzyme Assay I and II (M4 Plants). The class given is biochemical, wheat. Particulars: mutant selections; level lower than that for PURSUIT. How it is done:
Enzyme Extraction: For the extraction of AHAS, 10 grams of tissue are powdered in liquid nitrogen and then homogenized in 100 mM potassium phosphate buffer (pH 7.5) containing 10 mM pyruvate, 5 mM MgCl2, 5 uM EDTA, 100 uM FAD, 1 mM valine, 1 mM leucine, 10% glycerol, and 10 mM cysteine. The homogenate is filtered through a nylon cloth (53 uM mesh) and centrifuged at 25,000 g for 20 minutes. The supernatant fraction is brought to 50% saturation with respect to (NH4)2SO4 and allowed to stand for 20-30 minutes on ice. It is then centrifuged at 25,000 g for 20 minutes and the supernatant is discarded. The ammonium sulfate pellet is dissolved in 50 mM potassium phosphate buffer (pH 7.5) containing 1 mM EDTA and 100 mM NaCl and used for the assay procedures.
AHAS Assay: AHAS activity is measured by estimation of the product, acetolactate, after conversion by decarboxylation in the presence of acid to acetoin. Standard reaction mixtures contain the enzyme in 50 mM potassium phosphate buffer (pH 7.0) containing 100 mM sodium pyruvate, 10 mM MgCl2, 1 mM thiamine pyrophosphate, and 10 uM FAD. This mixture is incubated at 37° C. for one hour after which time the reaction is stopped with the addition of […] to make a final concentration of 0.85% […] in the tube. The reaction product is allowed to decarboxylate at 60° C. for 15 minutes. The acetoin formed is determined by incubating with creatine (0.17%) and 1-napthol (1.7% in 4N NaOH) by the method of Westerfield (Westerfield, W. W., J. Biol. Chem., 161, 495-502 (1945)). Maximum color is observed by incubation at 60° C. for 15 minutes and then further incubation at room temperature for 15 minutes. The absorption of color complex is measured at 520 nm. Appropriate checks of direct acetoin formation during the enzyme assay are made. Each assay is run at least in duplicate and the experiments are repeated a minimum of two times.
Herbicide Application: Two flats are planted with approximately 100 seeds of each wheat selection (FS1, FS2, and FS4) and Fidel in sterile Metro Mix 350. Ten days later, each flat is sprayed postemergence with 62.5 g/ha of PURSUIT™. The spray delivery rate is 400 L/ha with a belt speed of 8.2 sec/rev using nozzle #65015E. Tween 20™ is used as a surfactant at 0.25% v/v. The plants are harvested three days later and assayed for AHAS activity.
Enzyme Extraction and AHAS Assay: As previously described.
Herbicide Application: As described above (Enzyme Assay I) except that the spray delivery rate is 950 l/ha with a belt speed of 12.8 sec/rev using nozzle #40015E.

Assay [9] relates to mutant wheat selection FS2 and Fidel. The conditions noted are these: FS2 versus Fidel; postemergence. The source says: In a second experiment, the mutant wheat selection, FS2, from bulked M3-M4 seed, and Fidel seed are planted in 6″ Azalea pots in sterile Metro Mix 350™. Three seeds are planted per pot initially; these are subsequently thinned to two plants. There are three replicates of each treatment. In addition, the untreated controls consist of 15 replicates each of Fidel and FS2. Plants are sprayed postemergence, 12 days after planting, with the following herbicides and rates: […]

Where [10] appears, read: mutant wheat FS1-FS4, postemergence, plant growth four weeks after treatment.

The structures appear in SMILES notation. Like-named read-outs stand apart in the source and are kept apart here.

In the case of `COc1cc(OC)nc(NC(=O)NS(=O)(=O)c2ncccc2C(=O)N(C)C)n1` [ACCENT, 1-(4,6-dimethoxypyrimidin-2-yl)-3-(3-dimethylcarbamoyl-2-pyridylsulfonyl)urea], the cross resistance entry in [1] (FS4, after three weeks) is “no cross resistance”. Also, the “tolerance of the resistant wheat” value in [1] (FS4, postemergent 20 and 40 g/ha) is given as “little or no tolerance”. Also, the grain yield entry in assay [1] (both the resistant and susceptible Fidel, yields 10 weeks after treatment) is “little or no grain yield”.
In the case of `CC(C)C1(C)N=C(c2ncccc2C(=O)O)NC1=O` (centres unmarked) [ARSENAL, 2-(4-isopropyl-4-methyl-5-oxo-2-imidazolin-2-yl)-nicotinic acid], the “rate to which the mutant wheat is resistant” value in [2] (setting [10]) is given as “more than 48 g/ha”. In assay [3], the “most effective rate, pre-emergent spray” value was 40-50 g/ha. Also, the “increased tolerance of FS2 and FS4” value in [4] was “approximately 8 fold”. The “effect on seed germination and seedling growth” value in assay [5] (seed soak 1-500 uM for 48 hours, Experiment 1) is “inhibits seed germination and seedling growth with increasing concentration”. Besides, in [5] (seed soak 100 and 500 uM for 48 hours), the seedling growth entry is given as “totally inhibit seedling growth”. Moreover, the “herbicide concentration necessary for lethality” value in assay [5] (exposure greater than 72 hours) was 50 µM; in [5] (length of exposure less than 72 hours), 75 µM.
In the case of `Cc1cnc(C2=NC(C)(C(C)C)C(=O)N2)c(C(=O)O)c1` (centres unmarked) [CADRE, 2-(4-isopropyl-4-methyl-5-oxo-2-imidazolin-2-yl)-5-methylnicotinic acid], the “effect on final plant height” value in assay [1] was “no effect”.
For the molecule `CC(=O)NC(C)(C(=O)NS(=O)(=O)c1ccc(Cl)cc1)C(C)C` (centres unmarked) [Compound 1, 2-acetamido-N-[(p-chlorophenyl)sulfonyl]-2,3-dimethyl-butyramide], the “inhibitory effect on seed germination or seedling growth” value in assay [5] (seed soak 500-2000 uM for 48, 72 or 96 hours) is “does not have an inhibitory effect on either seed germination or seedling growth”.
Take `COCc1cnc(C2=NC(C)(C(C)C)C(=O)N2)c(C(=O)O)c1` (centres unmarked) [Compound 2, 2-(4-isopropyl-4-methyl-5-oxo-2-imidazolin-2-yl)-5-(methoxymethyl)-nicotinic acid]: in assay [2] (setting [10]), the “rate to which the mutant wheat is resistant” value is given as “more than 80 g/ha”. The “increased tolerance of mutant wheat” value in assay [2] (mutant wheat FS1-FS4 versus Fidel, postemergence, four weeks after treatment) is listed as about 16 fold. Besides, the “rates up to which FS2 and FS4 plant heights equal the untreated controls” value in [6] is 25-50 g/ha. The “effect on final plant height” value in [1] is listed as “no effect”.
Turning to `C/C(C(=O)O)=C(\C)C1=NC(C)(C(C)C)C(=O)N1` (centres unmarked) [Compound 7, 3-(4-isopropyl-4-methyl-5-oxo-2-imidazolin-2-yl)-2-methyl-crotonic acid], in assay [7], the resistance result is “greater than 10 fold”.
For the molecule `COC(OC)c1cnc(C2=NC(C)(C(C)C)C(=O)N2)c(C(=O)O)c1` (centres unmarked) [Compound 8, 5-formyl-2-(4-isopropyl-4-methyl-5-oxo-2-imidazolin-2-yl)-nicotinic acid, 5-(dimethylacetal)], the “effect on final plant height” value in assay [1] is reported as “no effect”.
For the molecule `COC(=O)c1ccccc1S(=O)(=O)NC(=O)Nc1nc(C)cc(C)n1` [OUST, methyl ester of o-[[3-(4,6-dimethylpyrimidin-2-yl)ureido]sulfonyl]-benzoic acid], in [2] (in vivo), the “increased tolerance of mutant wheat” value is given as about 2 fold and the “rate to which the mutant wheat is resistant” value is on record as “more than 5 g/ha”. The “resistance of AHAS activity to inhibition” value in assay [8] was “Some resistance”. Also, the “increased tolerance of the resistant wheat” value in [9] is given as 2-4 fold.
For the molecule `CC(C)C1(C)N=C(c2nc3ccccc3cc2C(=O)O)NC1=O` (centres unmarked) [SCEPTER, 2-(4-isopropyl-4-methyl-5-oxo-2-imidazolin-2-yl)-3-quinolinecarboxylic acid], the “resistance of AHAS activity to inhibition” value in assay [8] was “Some resistance”. Besides, the “seedling appearance versus controls” value was “slightly shorter than controls” in assay [5] (seed soak 500 uM for 48 hours) and “indistinguishable from controls” in assay [5] (seed soak 1-100 uM for 48 hours). The “prevention of escapes (false positives)” value in assay [5] (seed soak maximum 1000 uM for 48 hours, Experiment 2) is on record as “still not high enough to prevent “escapes””.

The values above are taken from patent publication US7034208B1, “Ahas inhibiting herbicide resistant wheat and method for selection thereof” (BASF Aktiengellschaft, priority 1991, dated 2006).
